Assay [1] relates to P. falciparum 3D7 parasites. The assay can be described thus: Time course of schizont rupture and merozoite invasion/ring formation. As to conditions: 100 μg/mL. It counts as cell-based, Plasmodium falciparum. As for the experimental part:
50 μL of synchronous 3D7 parasites at high parasitemia (5-10%), at approximately 32 hrs trophozoites were incubated as for GIAs with or without inhibitors (100 μg/mL). From approximately 44-48 hr schizonts parasite samples were collected, every 3 hrs for 15 hrs. Cells were stained and analysed as for GIAs to evaluate parasitemia and parasite stage.
To define the mechanism of action of heparin and heparin-like molecules Applicant performed time-course studies of schizont rupture, merozoite invasion and intra-erythrocytic development of P. falciparum in the presence of heparin. Parasite stages were evaluated using flow-cytometry, differentiating between late stage trophozoites and schizont versus ring stage parasites with ethidium bromide staining. […] No inhibition of infra-erythrocytic growth was observed (data not shown).

The target in a further assay is T1, lactoferrin (Homo sapiens, UniProt P02788).
T1 construct: purchased
T1 sequence (P02788 20-710, species assumed): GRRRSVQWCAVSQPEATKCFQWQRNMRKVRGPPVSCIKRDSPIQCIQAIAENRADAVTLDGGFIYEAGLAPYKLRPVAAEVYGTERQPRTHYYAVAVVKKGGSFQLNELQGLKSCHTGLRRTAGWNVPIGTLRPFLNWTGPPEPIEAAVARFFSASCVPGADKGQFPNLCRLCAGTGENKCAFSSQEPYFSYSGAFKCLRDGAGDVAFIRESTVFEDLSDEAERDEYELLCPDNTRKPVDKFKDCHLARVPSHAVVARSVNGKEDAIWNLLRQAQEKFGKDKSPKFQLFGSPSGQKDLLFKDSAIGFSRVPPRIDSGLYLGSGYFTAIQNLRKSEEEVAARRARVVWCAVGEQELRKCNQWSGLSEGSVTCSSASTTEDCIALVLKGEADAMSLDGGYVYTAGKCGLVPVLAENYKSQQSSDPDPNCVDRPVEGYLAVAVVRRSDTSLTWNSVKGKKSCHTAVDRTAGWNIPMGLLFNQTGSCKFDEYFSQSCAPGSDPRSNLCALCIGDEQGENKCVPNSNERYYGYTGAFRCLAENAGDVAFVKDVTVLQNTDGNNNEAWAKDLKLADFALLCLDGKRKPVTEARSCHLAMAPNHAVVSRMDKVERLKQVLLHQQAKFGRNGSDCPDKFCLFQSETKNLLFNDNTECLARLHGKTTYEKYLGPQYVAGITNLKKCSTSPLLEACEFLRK
The assay can be described thus: Heparin-BSA binding assay (positive control protein). Conditions: data not shown. As for the experimental part: Recombinant merozoite antigens were coated (1 μg/mL) onto 96 well plates (Nunc Maxisorb) in HT-PBS overnight at 4° C. Plates were washed and blocked with 1% casein, 1 hr, room temperature. Plates were incubated with heparin-BSA conjugate with soluble inhibitors and detected with anti-BSA (rabbit) (Sigma-Aldrich) antibodies and anti-rabbit -HRP. Detection was performed with 2,2′-azino-bis(3-ethylbenzthiazoline-6-sulphonic acid) (Sigma-Aldrich) monitored for colour change and measured for absorbance at 405 nm. All incubations were performed in HT-PBS 0.1% casein 0:05% Tween20, 1 hr at room temperature. Plates were washed 3 times HT-PBS 0.05% Tween20 between incubations.

The target of another assay is MSP1-42 (Plasmodium falciparum, UniProt Q8I0U8). The assay can be described thus: Binding of native merozoite proteins to heparin-agarose beads with soluble inhibitors. More on the design: proteolytically processed into 83 kDa, 30 kDa, 38 kDa and a C-terminal 42kDa (MSP1-42) fragment; endogenous in cells; host or cells: P. falciparum schizont-stage cultures, Triton X-100 extract; species or system P. falciparum. Conditions: soluble inhibitor 200 μg/mL. An excerpt:
Synchronized schizont stage (40-48 hr, 5-8% parasitemia) cultures were used for protein extraction. Uninfected erythrocytes were lysed with 0.15% saponin (Kodak) on ice for ten minutes. Remaining pellets were washed three times with cold HT-PBS. Protein from schizonts was extracted with 5 times volume of 1% TritonX100 (TX100) (Sigma-Aldrich, Australia), HT-PBS with protease inhibitors (Roche). Insoluble components were pelleted by centrifugation and supernatants collected. Schizont TX100 extracted proteins were bound to heparin-agarose beads (Sigma-Aldrich, Australia) as previously described. Heparin-agarose beads were washed once with 1% casein in PBS, once in PBS, and then blocked with 1% casein in PBS overnight at 4° C. TX100 merozoite protein extracts where incubated with beads containing 0.1% casein and 200 μg/mL of test inhibitor, or PBS as control, overnight at 4° C.; 50 μL of packed beads and 100 μL protein and inhibitor were used or each test sample. Inhibitors used were heparin and CSC. Unbound proteins in the supernatant were collected through Micro Bio-Spin Chromatography Columns (Bio-Rad). After incubation, beads were washed five times with PBS containing 0.1% casein and 1% Triton X-100. Bound proteins were eluted from beads with 50 μL of warmed reducing sample buffer. Bound and unbound proteins were separated by SDS-PAGE under reducing conditions and blotted onto membranes for probing with antibody detection with anti-MSP1 or anti-EBA175. 36. Baum J, Chen L, Healer J, Lopaticki S, Boyle M, et al. (2009) Reticulocyte-binding protein homologue 5—an essential adhesin involved in invasion of human erythrocytes by Plasmodium falciparum: Int J Parasitol 39: 371-380.

Sequence of MSP1-42 (Q8I0U8 1327-1699): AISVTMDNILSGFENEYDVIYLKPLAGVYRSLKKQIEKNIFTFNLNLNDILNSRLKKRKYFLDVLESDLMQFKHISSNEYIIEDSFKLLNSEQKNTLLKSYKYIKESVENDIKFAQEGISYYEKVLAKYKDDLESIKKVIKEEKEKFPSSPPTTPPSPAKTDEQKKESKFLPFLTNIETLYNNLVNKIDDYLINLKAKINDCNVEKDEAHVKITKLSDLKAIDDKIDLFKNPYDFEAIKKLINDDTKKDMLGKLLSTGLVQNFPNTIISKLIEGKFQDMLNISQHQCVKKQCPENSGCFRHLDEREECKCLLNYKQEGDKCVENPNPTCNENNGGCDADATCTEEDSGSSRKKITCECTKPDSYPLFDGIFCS

On to Heparin, for which, in assay [1], the “rates of merozoite invasion and ring formation” value is given as “very low”; the “schizont rupture compared to control” value is listed as “some delay, but not complete inhibition”. Also, the “inhibition of intra-erythrocytic growth” value in assay [1] (data not shown) is on record as “No inhibition”. On lactoferrin, the “inhibition of lactoferrin binding to heparin-BSA” value is reported as “inhibited”. Moreover, the “inhibition of native MSP1-42 binding to heparin-agarose beads” value at MSP1-42 was “effectively inhibited”.

The values are drawn from patent US20120108538A1, “SULFATED POLYSACCHARIDES HAVING ANTIPLASMODIAL ACTIVITY AND METHODS AND PRODUCTS FOR IDENTIFYING ANTIPLASMODIAL ACTIVITY” (priority 2009, published 2012).
